The record followed here is patent US11447471B2, “α,β-unsaturated amide compound” (KYOWA KIRIN CO., LTD., priority 2017, dated 2022).

SMILES strings stand for the structures.

What all share (assay type): cell-based
One assay has as its system OVTOKO cells. The assay can be described thus: Cell growth inhibitory effect on human ovarian cancer cell line (cell counting kit 8, 6 days). The following applies: 144 h, 6 days incubation. In short, it runs like this: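 Cells in RPMI1640 with 10% FBS plated at 500 cells/well (OVTOKO 250/well) and cultured one day at 37° C, 5% CO2. Serially diluted compound added (final DMSO 0.1%) for 6 days; viable cells measured at addition and day 6 with CCK-8, absorbance 450 nm. GI50 derived from growth inhibition rate.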
Background: Tetrazolium assays rely on reduction of a dye to a coloured formazan, in cell work by metabolically active cells.

A further assay has as its system NCI-H226 cells. The assay can be described thus: Cell growth inhibitory effect on human mesothelioma cell line (cell counting kit 8, 6 days). The following applies: NCI-H226, 144 h. An excerpt: (§1) NCI-H226 cells, a human mesothelioma cell line (ATCC, CRL-5826), NCI-H322 cells, a human lung cancer cell line (the European Collection of Authenticated Cell Cultures, 95111734), OUTOKO cells, a human ovarian cancer cell line (JCRB cell bank, KRB1048) and […] were each subcultured by keeping the cell density under 80% in a RPMI1640 culture medium with 10% fetal bovine serum (FBS). NCI-H226 cells, NCI-H322 cells and SSP-25 cells were each suspended in the RPMI1640 culture medium mentioned above, and plated to a 96-well flat-bottom plate at 500 cells/well in each well, and incubated at 37° C. in an incubator with 5% CO2 for one day. After the incubation, the evaluation of cell growth inhibitory activity was started. OVTOKO cells were suspended in the RPMI1640 culture medium mentioned above, and plated to a 96-well flat-bottom plate at 250 cells/well in each well, and incubated it at 37° C. in an incubator with 5% CO2 for one day. After the incubation, the evaluation of the cell growth inhibitory activity was started. The next day, a test compound was serially diluted to 5 times of its final concentration in the RPM11640 culture medium mentioned above, and the diluted solution was added to each well. In this case, the final concentration of DMSO in each well was adjusted to 0.1%. After the test compound was added, cells were incubated at 37° C. in an incubator with 5% CO2 for 6 days. At the addition of the test compound and 6 days after the addition, the cell counting measurement was performed using a cell counting kit 8 (made by DOJINDO) according to a protocol equivalent to DOJINDO's recommendation. A reagent contained in the kit was added to each plate and color reaction was performed for 2 or 3 hours at 37° C. in an incubator with 5% CO2. After the reaction, an absorbance at wavelength of 450 nm was measured using a microplate reader. A growth inhibition rate was calculated according to the following formula, from which the concentration of a test compound at which cell growth was inhibited by 50% (GI50 value) was determined.

A further assay relates to NCI-H322 cells. The assay can be described thus: Cell growth inhibitory effect on human lung cancer cell line (cell counting kit 8, 6 days). To be noted: 144 h; human lung cancer cell line NCI-H322, 6 days incubation.
From the text: as §1

The next assay relates to HuH28 cells. The assay is described as follows: Cell growth inhibitory effect on human liver cancer cell line (cell counting kit 8, 6 days). The following applies: 144 h; human liver cancer cell line HuH28, 6 days incubation.
From the text: as §1

Usually GI50 stands for the concentration giving 50% growth inhibition. Read a high GI50 as lower sensitivity of the cells. For `C=CC(=O)N[C@@H]1CC[C@H](Oc2ccc(C(F)(F)F)cc2)c2nc(OC)ccc21` (relative stereo) [Compound 179, cis-N-[2-Methoxy-8-{4-(trifluoromethyl)phenoxy}-5,6,7,8-tetrahydroquinolin-5-yl]acrylamide], the GI50 was at most 3000 nM with OVTOKO cells, under 100 nM in the assay with NCI-H226 cells, under 1000 nM in the assay with NCI-H322 cells and under 3000 nM with HuH28 cells.
Turning to `C=CC(=O)N[C@@H]1CC[C@H](Oc2ccc(C(F)(F)F)cc2)c2nc(C3CC3)ccc21` (relative stereo) [Compound 185, cis-N-[2-Cyclopropyl-8-{4-(trifluoromethyl)phenoxy}-5,6,7,8-tetrahydroquinolin-5-yl]acrylamide], the GI50 in the assay on OVTOKO cells is at most 3000 nM; with NCI-H226 cells, under 100 nM; with NCI-H322 cells, under 1000 nM; in the assay on HuH28 cells it was under 3000 nM.
For `C=CC(=O)N[C@@H]1CC[C@H](Oc2ccc(C(F)(F)F)c(F)c2)c2nc(Cl)ccc21` (relative stereo) [Compound 187, cis-N-[2-Chloro-8-{3-fluoro-4-(trifluoromethyl)phenoxy}-5,6,7,8-tetrahydroquinolin-5-yl]acrylamide] the same measures were at most 3000 nM, under 100 nM, under 1000 nM and under 3000 nM.
For `C=CC(=O)N[C@@H]1CC[C@H](Oc2ccc(C(F)(F)F)cn2)c2nc(Cl)ccc21` (relative stereo) [Compound 189, cis-N-(2-Chloro-8-[{5-(trifluoromethyl)pyridin-2-yl}oxy]-5,6,7,8-tetrahydroquinolin-5-yl)acrylamide] the same measures were at most 3000 nM, under 100 nM, under 1000 nM and under 3000 nM.
`C=CC(=O)NC1CC[C@H](Oc2cccc(Cl)c2)c2ncccc21` (stereo in doubt) [Compound 68, cis-N-{8-(3-Chlorophenoxy)-5,6,7,8-tetrahydroquinolin-5-yl}acrylamide]: the GI50 in the assay on OVTOKO cells is at most 3000 nM; in the assay with NCI-H226 cells, under 100 nM; in the assay with NCI-H322 cells, under 1000 nM; with HuH28 cells, under 3000 nM.
With `C=CC(=O)NC1CCOc2c1ccc(Oc1ccc(C(F)(F)F)nc1)c2OC` (stereo not shown) [Compound 163, N-(8-Methoxy-7-[{6-(trifluoromethyl)pyridin-3-yl}oxy]chroman-4-yl)acrylamide], the GI50 in the assay on OVTOKO cells was at most 3000 nM; in the assay on NCI-H226 cells it was under 100 nM; with NCI-H322 cells, under 1000 nM; in the assay on HuH28 cells it was under 3000 nM.
For `C=CC(=O)Nc1cncc(OCC2CCC(F)(F)CC2)c1` [Compound 192] the same measures were at most 3000 nM, 100 to 1000 nM, under 1000 nM and under 3000 nM.
Taken in the same sequence, the figures for `C=CC(=O)NCc1ccc(Oc2ccc(C(F)(F)F)cc2)c2nc(C)oc12` [Compound 243, N-([2-Methyl-4-{4-(trifluoromethyl)phenoxy}benzo[d]oxazol-7-yl]methyl) acrylamide] were at most 3000 nM, under 100 nM, under 1000 nM and under 3000 nM.
In the case of `C=CC(=O)NCc1ccc(Oc2ccc(C(F)(F)F)cc2)c2nc(CC)oc12` [Compound 244, N-([2-Ethyl-4-{4-(trifluoromethyl)phenoxy}benzo[d]oxazol-7-yl]methyl)acrylamide], the GI50 is at most 3000 nM in the assay with OVTOKO cells, under 100 nM with NCI-H226 cells, under 1000 nM in the assay on NCI-H322 cells and under 3000 nM with HuH28 cells.
For `C=CC(=O)NCc1ccc(Oc2ccc(C(F)(F)F)cc2)c2ncoc12` [Compound 247, N-([4-{4-(Trifluoromethyl)phenoxy}benzo[d]oxazol-7-yl]methyl)acrylamide] the same measures were at most 3000 nM, under 100 nM, under 1000 nM and under 3000 nM.
For `C=CC(=O)NCc1ccc(Oc2ccc(C(F)(F)F)nc2)c2nc(C)oc12` [Compound 249, N-{(2-Methyl-4-[{6-(trifluoromethyl)pyridin-3-yl}oxy]benzo[d]oxazol-7-yl)methyl}acrylamide] the same measures were at most 3000 nM, under 100 nM, under 1000 nM and under 3000 nM.
For `C=CC(=O)NCc1ccc(Oc2ccc(C(F)(F)F)cn2)c2nc(C)oc12` [Compound 250, N-{(2-Methyl-4-[{5-(trifluoromethyl)pyridin-2-yl}oxy]benzo[d]oxazol-7-yl)methyl}acrylamide] the same measures were at most 3000 nM, under 100 nM, under 1000 nM and under 3000 nM.
Regarding `C=CC(=O)NCc1ccc(Oc2ccc(C(F)(F)F)cn2)c2nc(CC)oc12` [Compound 252, N-{(2-Ethyl-4-[{5-(trifluoromethyl)pyridin-2-yl}oxy]benzo[d]oxazol-7-yl)methyl}acrylamide], the GI50 in the assay with NCI-H226 cells is under 100 nM; in the assay on NCI-H322 cells, under 1000 nM; in the assay on HuH28 cells, under 3000 nM.
Taken in the same sequence, the figures for `C=CC(=O)NCc1ccc(Oc2ccc(C(F)(F)F)cc2)c2oc(C)nc12` [Compound 253, N-([2-Methyl-7-{4-(trifluoromethyl)phenoxy}benzo[d]oxazol-4-yl]methyl)acrylamide] were under 100 nM, under 1000 nM and under 3000 nM.
Take `C=CC(=O)NCc1ccc(Oc2ccc(C(F)(F)F)cc2)c2nc(C)sc12` [Compound 256, N-([2-Methyl-4-{4-(trifluoromethyl)phenoxy}benzo[d]thiazol-7-yl]methyl)acrylamide]: the GI50 with OVTOKO cells is at most 3000 nM; with NCI-H226 cells, under 100 nM; with NCI-H322 cells, under 1000 nM; in the assay on HuH28 cells it was under 3000 nM.
In the case of `C=CC(=O)NCc1ccc(Oc2ccc(C(F)(F)F)cc2)c2sc(C)nc12` [Compound 257, N-([2-Methyl-7-{4-(trifluoromethyl)phenoxy}benzo[d]thiazol-4-yl]methyl)acrylamide], the GI50 in the assay on NCI-H226 cells is under 100 nM; in the assay with NCI-H322 cells, under 1000 nM; in the assay with HuH28 cells it was under 3000 nM.
Take `C=CC(=O)NCc1ccc(C(O)c2ccc(C(F)(F)F)cc2)c2nc(C)oc12` (stereo not shown) [Compound 268, N-{(4-[Hydroxy{4-(trifluoromethyl)phenyl}methyl]-2-methylbenzo[d]oxazol-7-yl)methyl}acrylamide]: the GI50 was at most 3000 nM with OVTOKO cells, 100 to 1000 nM in the assay on NCI-H226 cells, under 1000 nM with NCI-H322 cells and under 3000 nM with HuH28 cells.
Turning to `C=CC(=O)NCc1ccc(N(C)c2ccc(C(F)(F)F)cc2)c2nc(C)oc12` [Compound 269, N-{(2-Methyl-4-[methyl{4-(trifluoromethyl)phenyl}amino]benzo[d]oxazol-7-yl)methyl}acrylamide], the GI50 with OVTOKO cells was at most 3000 nM; with NCI-H226 cells, 100 to 1000 nM; in the assay on NCI-H322 cells it was under 1000 nM; in the assay on HuH28 cells, under 3000 nM.
Taken in the same sequence, the figures for `C=CC(=O)NCc1ccc(Nc2ccc(C(F)(F)F)cc2)c2nc(C)oc12` [Compound 270, N-{(2-Methyl-4-[{4-(trifluoromethyl)phenyl}amino]benzo[d]oxazol-7-yl)methyl}acrylamide] were at most 3000 nM, under 100 nM, under 1000 nM and under 3000 nM.
Regarding `C=CC(=O)NCc1ccc(Sc2ccc(C(F)(F)F)cc2)c2nc(C)oc12` [Compound 272, N-{(2-Methyl-4-[{4-(trifluoromethyl)phenyl}thio]benzo[d]oxazol-7-yl)methyl}acrylamide], the GI50 in the assay on OVTOKO cells was at most 3000 nM; with NCI-H226 cells, under 100 nM; with NCI-H322 cells, under 1000 nM; with HuH28 cells, under 3000 nM.
Turning to `C=CC(=O)NCc1ccc(Oc2ccc(N(C)C)cc2)c2nc(C)oc12` [Compound 275, N-([4-{4-(Dimethylamino)phenoxy}-2-methylbenzo[d]oxazol-7-yl]methyl)acrylamide], the GI50 with OVTOKO cells was at most 3000 nM; in the assay with NCI-H226 cells, 100 to 1000 nM; in the assay with NCI-H322 cells, under 1000 nM; with HuH28 cells it was under 3000 nM.
For `C=CC(=O)NCc1ccc(Oc2ccc(C(F)(F)F)c(F)c2)c2nc(C)oc12` [Compound 277, N-([4-{3-Fluoro-4-(trifluoromethyl)phenoxy}-2-methylbenzo[d]oxazol-7-yl]methyl)acrylamide] the same measures were at most 3000 nM, under 100 nM, under 1000 nM and under 3000 nM.
